Assay results: US10464885B2, “Compound, preparation method therefor, applications thereof, corresponding targeted drug delivery system, chemotherapy drugs, and treatment method” (BEIJING XINDE RUNXING TECHNOLOGY CO., LTD., priority 2015, dated 2019)

Legend:
human body = conditions: oral treatment of taeniasis, adults and children; cited from earlier work
[1] = Solubility in solvents (experimental results); format: physicochemical
Text: The molecular weight is 367.9967.

Jurkat cell line = test: Cell viability CCK-8 assay, Jurkat cell suspension; format: cell-based; conditions: six concentrations 0.041 μM-10 μM; 24 h, 48 h and 72 h; OD at 450 nm
Protocol: Test cell line: Jurkat cell line (purchased from Nanjing Cobioer Co., Ltd.)
Experimental method: Cell viability CCK-8 assay
Experimental design: within a dose concentration range of 0.041 μM-10 μM, six concentrations were designed with three-fold increments, including 0.041 μM, 0.123 μM, 0.367 μM, 1.1 μM, 3.3 μM and 10 μM.
1. A Jurkat cell suspension was prepared and inoculated to the 96-well plate at an amount of 5×10^4/well.
2. The Jurkat cell suspension was directly added to different concentrations of NIC-1 and control drug N-(2-chloro-4-nitrophenyl)-5-chloro-2-hydroxybenzamide, followed by culture in an incubator at 37° C. for 24 h, 48 h and 72 h respectively; CCK8 was measured by adding CCK8 to each well at an amount of 10 μl/well, culturing for 2-3 h and detecting a value of OD at 450 nm using a microplate reader.
Experimental results: the outcomes of the synthesized compound NIC-1 of the present invention and the control drug N-(2-chloro-4-nitrophenyl)-5-chloro-2-hydroxybenzamide in the six concentrations were compared with those of the blank control, respectively. […]

[2] = test system: small cell lung cancer cell line H446; test: H446 cell colony in vitro formation assay (crystal violet staining); format: cell-based; conditions: Day 7 (one week)
Protocol: Test cell line: small cell lung cancer cell line H446 (purchased from Shanghai Beinuo Life Science Co., Ltd.) Experimental method: H446 cell colony in vitro formation assay
Detection method: crystal violet staining
On Day 1, a 6-well plate (Transwell, batch No. 3428, manufactured by Corning Incorporated) was adopted as cell plate, with 2000 cells/well per plate.
On Day 2, after microscopic observation of cell adherence, a 1 ml medium containing the drug was loaded to each well, with settings of 2 wells in one group and totally three groups: A. 6 μmol/L, a. 6 μmol/L (multiple wells); B. blank (no drug); b. blank (no drug, multiple wells); C. 12 μmol/L; c. 12 μmol/L (multiple wells); the drugs were changed every three days, and the observation was performed every day.
On Day 7, cell colonies were visually observed at the bottom of the vessel, and the cells were collected by: discarding the culture medium in each well, washing cells with phosphate buffered saline (PBS) twice for 5 minutes each time, adding 500 μl crystal violet stain solution to each well for staining at room temperature for 15 minutes, washing cells with PBS twice for 5 minutes each time, and finally detecting on a WB analyzer.

[3] = test system: small cell lung cancer cell line H446; test: Cell viability CCK-8 assay, H446; format: cell-based; conditions: 48 h after dosing
Text: Test cell line: small cell lung cancer cell line H446 (purchased from Shanghai Beinuo Life Science Co., Ltd.)
Cell viability CCK-8 assay: CCK8 assay, with a reagent containing 2-(2-methoxy-4-nitrophenyl)-3-(4-nitrophenyl)-5-(2,4-disulfophenyl)-2H-tetrazole monosodium salt (WST-8), is reduced by dehydrogenase in the cells in the presence of electron carrier 1-methoxy-5-methylphenazinium […] (1-Methoxy PMS), to obtain a highly water-soluble yellow formazan product (Formazan), and the count of viable cells is positively associated with the amount of obtained formazan product. Thus, CCK8 assay can be directly used for the evaluation of cell proliferation and toxicity analysis.
Each well of 96-well plate was loaded at an amount of 7×10^3 cells/well. After 24 h plating, 200 μl of solution was supplied to each well. NIC-1, vp-16 and blank were applied to the plate in four concentrations: concentration 1=1.528 μm, concentration 2=1.528 μm*2, concentration 3=1.528 μm*5, concentration 4=1.528 μm*10, wand each group was made in triplicate.
The plate was harvested 48 h after dosing, by:
discarding 200 μl solution in each well, adding 100 μl solution (90 μl medium+10 μl CCK8 stock solution) to each well, placing the plate in a 37° C. incubator for about 1 hour, and measuring a value of OD at 450 nm using a microplate reader.
The small cell lung cancer cell line H446 was treated with NIC-1 and etoposide (vp16) for […] respectively, and then the cell viability was detected by CCK-8 assay.
The synthesized compound NIC-1 of the present invention in the concentrations of 1.528 μM, 3.056 μM, 7.64 μM and 15.28 μM was compared with etoposide (vp16) and blank control, respectively. As shown in FIGS. 5-8, a chart of comparison of the inhibitory effect on the cell viability of small cell lung cancer cell line H446 was shown in each figure, wherein the horizontal axis represented the blank control, NIC-1, vp-16 and corresponding dosage concentrations, and the vertical axis represented measured OD values.

[4] = test system: patients with relapsed SCLC; conditions: cited from earlier work
[5] = oral, Day 1, 8 and 15 of 28 days

O=C(Nc1ccc([N+](=O)[O-])cc1Cl)c1cc(Cl)ccc1O [N-(2-chloro-4-nitrophenyl)-5-chloro-2-hydroxybenzamide]
side effects (human body): occasional side effects manifested by fatigue, dizziness, chest tightness, gastrointestinal disorders, fever and itching

CC(=O)Oc1ccc(Cl)cc1C(=O)Nc1ccc([N+](=O)[O-])cc1Cl [NIC-1, N-(2-chloro-4-nitrophenyl)-5-chloro-2-acetoxybenzamide]
solubility in dichloromethane ([1]; dichloromethane): soluble
solubility in ethanol ([1]; ethanol): slightly soluble
solubility in ether ([1]; ether): slightly soluble
solubility in water ([1]; water): insoluble
inhibitory effect on cell viability of Jurkat cell line compared with control drug (Jurkat cell line): superior to the control drug
inhibition of growth of H446 cells (colony formation) ([2]; 6 μmol/L): partially inhibited
inhibition of growth of H446 cells (colony formation) ([2]; 12 μmol/L): completely inhibited
inhibitory effect on cell viability of H446 compared with etoposide (vp16) ([3]; 1.528 μM): slightly better than etoposide (vp16)
inhibitory effect on cell viability of H446 compared with etoposide (vp16) ([3]; 3.06 μM): significantly better than etoposide (vp16)
inhibitory effect on cell viability of H446 compared with etoposide (vp16) ([3]; 7.64 μM): significantly better than etoposide (vp16)
inhibitory effect on cell viability of H446 compared with etoposide (vp16) ([3]; 15.28 μM): significantly better than etoposide (vp16)

CC[C@@]1(O)C(=O)OCc2c1cc1n(c2=O)Cc2cc3c(CN(C)C)c(O)ccc3nc2-1 [topotecan]
dose at which dose-limiting toxicity (DLT) appeared [4, 5]: 4.5 mg/m^2
maximum tolerated dose (MTD) [4, 5]: 4 mg/m^2
II degree thrombocytopenia ([4]; weekly oral): 16.7%
II-III degree anemia ([4]; weekly oral): 33.3%
II-III degree fever ([4]; weekly oral): 44.4%
II-III degree neutropenia ([4]; weekly oral): 27.8%
median progression-free survival (PFS) ([4]; weekly oral): 2.3 months
median survival (OS) ([4]; weekly oral): 5.1 months
